Results taken from patent publication US9486440B2, “Uses of indole-ketones or indolidones as neuro-protective drugs” (UNIVERSITY OF MACAU, priority 2011, dated 2016).
“Also recorded” adds a separate entry of the source.

Legend:
CGNs [1] = experiment: MPP+-induced neurotoxicity in CGNs, MTT and LDH assays; format: cell-based, rat; conditions: pre-treatment 2 hours, then 35 μM MPP+ for 24 hours
Experimental: (§1) All animal experiments were conducted according to the ethical guidelines of ICMS, Macau University and the Animal Care Facility, The Hong Kong Polytechnic University. Rat CGNs were prepared from 8-day-old Sprague-Dawley rats (The Animal Care Facility, The Hong Kong Polytechnic University) as described by Li et al., 2005. Briefly, neurons were seeded at a density of 2.7×10^5 cells/ml in basal modified Eagle's medium (Invitrogen) containing 10% fetal bovine serum, 25 mM KCl, 2 mM glutamine, and penicillin (100 units/ml)/streptomycin (100 μg/ml). Cytosine arabinoside (10 μM) was added to the culture medium 24 hour after plating to limit the growth of non-neuronal cells. With the use of this protocol, more than 95% of the cultured cells were granule neurons.
(§2) The percentage of surviving neurons in the presence of SU4312 and/or MPP^+ was estimated by determining the activity of mitochondrial dehydrogenases with 3(4,5-dimethylthiazol-2-yl)-2.5-diphenyltetrazolium bromide (MTT) assay (Li et al., 2007). The assay was performed according to the specifications of the manufacturer (MTT kit I; Roche Applied Science). Briefly, the neurons were cultured in 96-well plates, 10 μl of 5 mg/ml MTT labeling reagent was added to each well containing cells in 100 μl of medium, and the plates were incubated for 4 hours in a humidified incubator at 37° C. After the incubation, 100 μl of the solvating solution (0.01 N HCl in 10% SDS solution) was added to each well for 16-20 hours. Absorbance of the samples was measured at a wavelength of 570 nm with 655 nm as a reference wavelength. Unless otherwise indicated, the extent of MTT conversion in cells exposed to MPP^+ is expressed as a percentage of the control.
Cytotoxicity was determined by measuring the release of lactate dehydrogenase (LDH). Briefly, cells were precipitated by centrifugation at 500 g for 5 min at room temperature, 50 μl of the supernatants was transferred into new wells, and LDH was determined using the in vitro toxicology assay kit (Roche). The absorbance of the samples was measured at a wavelength of 490 nm with 655 nm as a reference wavelength.
as §1, with “Rat” for “All animal experiments were conducted according to the ethical guidelines of ICMS, Macau University and the Animal Care Facility, The Hong Kong Polytechnic University. Rat”, “hours” for “hour”
as §2, with “The” for “The percentage of surviving neurons in the presence of SU4312 and/or MPP^+ was estimated by determining the activity of mitochondrial dehydrogenases with 3(4,5-dimethylthiazol-2-yl)-2.5-diphenyltetrazolium bromide (MTT) assay (Li et al., 2007). The”, “incubated at 37° C.” for “incubated”, “incubator.” for “incubator at 37° C.”, “The absorbance” for “Absorbance”

VEGFR-2 = conditions: cited from earlier work
[2] = tested on: DA neurons in the zebrafish brain; experiment: MPTP zebrafish, whole-mount immunostaining against tyrosine hydroxylase; format: in vivo; conditions: 200 μM MPTP, 2 days from 1 dpf; SU4312 3-30 μM, PTK787/ZK222584 0.3-3 μM, SU5416 0.1-1 μM, VRI 0.03-0.3 μM
Experimental: (§3) Wild-type zebrafish (AB strain) and Tg (fli-1:EGFP) transgenic zebrafish were maintained as described in the Zebrafish Handbook (Westerfield, 1993). Zebrafish embryos were generated by natural pair-wise mating (3-12 months old) and raised at 28.5° C. in embryo medium (13.7 mM NaCl, 540 μM KCl, pH 7.4, 25 μM Na2HPO4, 44 μM KH2PO4, 300 μM CaCl2, 100 μM MgSO4, 420 μM NaHCO3, pH 7.4). […] An equal concentration of DMSO in embryo medium was used as vehicle control in each experiment.

zebrafish larvae = experiment: Locomotion behavioral test of zebrafish larvae; format: in vivo; conditions: for MPTP-induced deficit of swimming behavior (total distance travelled): 200 μM MPTP 2 days, then 10 μM MPTP plus drug 3 days, L-deprenyl 20 μM, L-dopa 150 μM
Experimental: as §3
Thus the MPTP exposure needs to last 5 day from 1 dpf. […] Thus subsequent locomotion behavioral studies were done with 200 μM MPTP for treatment for 2 days at 1 dpf then replacing insult with 10 μM MPTP for incubation for another 3 days.
(§4) After drug treatment, zebrafish larvae at 6 dpf were transferred into 96-well plates (1 fish/well and 12 larvae/group). Fishes responded with excessive stress reaction (such as rapid and disorganized swimming or immobility for 2 min) due to the handling and monitoring of the behavior were discarded. The experiments were performed in a calm enclosed area. The larvae were allowed to habituate to the new environment for 30 min prior to experiments. Behavior was monitored by an automated video tracking system (Viewpoint, ZebraLab, LifeSciences). The 96-well plates and camera were housed inside a Zebrabox and the swimming pattern of each fish was recorded for 10 min and repeated 3 times, once every other 10 min. The total distance moved was defined as the distance (in cm) that the fish had moved during one session (10 min).
Normally as late as 3 dpf, zebrafish larvae show very little spontaneous swimming, but by 5 dpf they spontaneously swim longer distances and independently search for food. The MPTP exposure therefore needs to last 5 days from 1 dpf. […] Thus subsequent locomotion behavioral studies were performed with 200 μM MPTP for 2-day treatment at 1 dpf then replacing with media containing 10 μM MPTP for another 3-day incubation.
as §4, with “The larvae were discarded due to” for “Fishes responded with”, “reaction to the handling and monitoring of behavior” for “reaction”, “min).” for “min) due to the handling and monitoring of the behavior were discarded.”, “sealed” for “enclosed”, “min. Swimming behavior” for “min prior to experiments. Behavior”, “for” for “repeated”

[3] = tested on: intersegmental-vessel (ISV) formation; experiment: Intersegmental-vessel formation in Tg(fli-1:EGFP) zebrafish; format: in vivo; conditions: 1 dpf embryos treated 48 hours; SU4312 3-30 μM, PTK787/ZK222584 0.3-3 μM, VRI 0.1-0.3 μM, SU5416 0.3-1 μM
Experimental: as §3
(§5) After drug treatment, zebrafish were removed from microplate and observed for gross morphological changes of blood vessel under a fluorescence microscope (Olympus am Motorized Inverted Microscope, Japan) equipped with a digital camera (DP controller, Soft Imaging System, Olympus). Images were analyzed with Axiovision 4.2 and Adobe Photoshop 7.0.
(§6) Wild-type zebrafish (AB strain) and Tg(fli-1:EGFP) transgenic zebrafish were maintained as described in the Zebrafish Handbook (Westerfield, 1993). Zebrafish embryos were generated by natural pair-wise mating (3-12 months old) and were raised at 28.5° C. in embryo medium (13.7 mM NaCl, 540 μM KCl, pH 7.4, 25 μM Na2HPO4, 44 μM KH2PO4, 300 μM CaCl2, 100 μM MgSO4, 420 μM NaHCO3, pH 7.4). […] Equal concentration of DMSO in embryo medium was used as vehicle control in each experiment.
as §5, with “from the” for “from”

zebrafish = experiment: Toxicity to zebrafish; format: in vivo; conditions: SU5416 10 μM, VRI 3 μM, SU4312 up to 30 μM
Experimental: as §3, §6

nNOS = nNOS (Homo sapiens, UniProt P29475); conditions: cited from earlier work
iNOS = iNOS (Homo sapiens, UniProt P35228); conditions: cited from earlier work
CGNs [4] = experiment: Low potassium-induced cell death in CGNs, MTT assay; format: cell-based; conditions: 5 mM KCl BME medium, 24 hours; sunitinib 0.1-2 μM
Experimental: Cell viability was measured by MTT assay at 24 hours after low potassium challenge. […] After 24 hours of low potassium challenge, CGNs were assayed with an FDA/PI double staining. […] After 24 hours of low potassium challenge, CGNs were assayed with Hoechst staining. The number of apoptotic nuclei with condensed chromatin were counted from representative Hoechst staining photomicrographs and represented as a percentage of the total number of nuclei counted. […] Intracellular NO level was measured using DAF-FM diacetate as a probe at 4 hour after low potassium challenge. Data, expressed as percentage of control (CGNs were cultured in high potassium medium), were the mean±SEM of three separate experiments; *p<0.05 and **p<0.01 versus low potassium group in (A) and (D) or versus control in (C); ^##p<0.01 versus low potassium group in (C) (Turkey's test).
It was previously reported that low potassium could induce typical apoptosis in cerebellar granule neurons (CGNs) (Fu et al., 2008). […] Cell viability was measured with an MTT assay 24 hours after the low potassium treatment.

Row | Compound | MPP+-induced cell death (cell viability, MTT and LDH assays) (CGNs [1]) | IC50 (VEGFR-2) [µM] | MPTP-induced deficit of swimming behavior (total distance travelled) (zebrafish larvae) | also measured
1 | CC(=N)NCc1cccc(CN)c1 [1400W] | failed to block neuronal death; also recorded: did not show protection | – | – | –
2 | CN(C)c1ccc(/C=C2\C(=O)Nc3ccccc32)cc1 [cis-SU4312] | – | 0.8 | – | –
3 | O=C1Nc2ccc(Br)cc2/C1=C/c1cc2c([nH]1)CCCC2 [VRI] | at 1 and 3 μM failed to block neuronal loss in vitro | 70 | but not VRI ameliorated the MPTP-induced deficit of swimming behavior | MPTP-induced loss of DA neurons / decrease of TH+ region area [2]: could not prevent MPTP-induced decrease in TH^+ region area; swimming behavior of normal zebrafish larvae, drug alone (zebrafish larvae; zebrafish, in vivo): Neither SU5416 nor VRI treatment alone notably altered the swimming behavior; inhibition of intersegmental-vessel (ISV) formation [3]: inhibited the formation of intersegmental-vessels; toxicity to zebrafish (zebrafish): showed toxicity to zebrafish
4 | N[C@@H](Cc1ccc(O)c(O)c1)C(=O)O [levodopa] | – | – | rescued | –
5 | CCSC(=N)N [EPTU, 2-ethyl-2-thiopseudourea] | prevented MPP^+-induced neuronal death in CGNs | – | – | IC50 (nNOS): 0.036 µM; IC50 (iNOS): 0.017 µM
6 | CNC(=N)NCCC[C@H](N)C(=O)O [L-NMMA] | – | – | – | low potassium-induced cell death (MTT) (CGNs [4]): at 10-20 μM prevented low potassium-induced neuronal death in CGNs
7 | C#CCN(C)[C@H](C)Cc1ccccc1 [L-deprenyl] | – | – | rescued | –
8 | CN(C)c1ccc(/C=C2/C(=O)Nc3ccccc32)cc1 [trans-SU4312] | – | 5.2 | – | –
